# Assay results as given in patent US9085463B2, “Water-soluble functionalized fullerenes” (Marelle, LLC, priority 2011, dated 2015).
# What was measured:
# [1] = DPPH radical-scavenging method (anti-oxidant potential); type: biochemical; conditions: for RD(.05 mg): amount of compound needed to deplete .05 mg of DPPH: calculated from slope; for Slope (anti-oxidant potential): mg DPPH remaining vs mg compound, linear regression, absorbance at 517 nm
# Source text: The ability of a component to serve as an anti-oxidant is readily tested by a variety of methods known in the art. These analytical methods measure the radical-scavenging activity of anti-oxidants against free radicals, such as the 1,1-diphenyl-2-picrylhydrazyl (DPPH) radical. […] This absorbance disappears as the DPPH is consumed upon reduction by an antiradical compound. The disappearance of this so-called absorbance band can be followed by spectroscopic methods allowing quantitative measurements of the compound's anti-oxidant ability.
# Stock solutions of 100 micromolar DPPH were prepared using 3.9 milligrams (mg) of DPPH dissolved in 100 milliliters (ml) of solution using spectroscopic grade methanol (MeOH). 3.5 ml of the DPPH solution was combined with 0.5 ml of test solutions of various concentrations of the anti-oxidant compounds. The commercial anti-oxidants, which are not water soluble, were dissolved in MeOH while their functionalized fullerene derivatives were dissolved in distilled water. The test mixture was immediately placed in a spectrometer which measured the absorbance of the mixture at 517 nm at various intervals over periods of 6 to 8 hours. Typically 4 or more samples of the anti-oxidants at various concentrations were tested. The concentrations, expressed in milligrams per milliliter (mg/ml), were selected so that some of the samples would consume more than 50% of the DPPH and others would not.
# The percent of DPPH remaining at a given time interval was calculated using the following equation:
# [formula] ACt is the absorbance value to the compound/DPPH solution at time t, ADPPHi is the initial value of the DPPH control blank at time t=0, and ADPPHt′ is the absorbance value of the control blank DPPH at time t=t′. The term (ADPPHt−ADPPHt′) in the above equation is the absorbance correction factor for DPPH radical decay as measured in the control blank.
# The % DPPHram was recorded for each of the four concentrations at two different reaction times (30 minutes and 300 minutes). The % DPPHram was converted to milligrams (mg) of DPPH remaining and plotted as a function of milligrams (mg) of compound for each of the two reaction times. Linear regressions were calculated for each of the data sets according to the following formula: CDPPH=mt·Cc+CDPPHo
# CDPPH is the mass of DPPH remaining at time t=30 minutes and time t=300 minutes, Co is the mass of the compound in the cuvette, CDPPHo is the initial concentration of the DPPH in the cuvette, and mt is the slope determined by the linear regression. The slope was used as a parameter to estimate the anti-oxidant potential of the compound. […] FIGS. 30-34 illustrate the slope (anti-oxidant potential) of commercial anti-oxidants and their functionalized fullerenol derivatives (indicated with FF in the legends).
# The slope for each compound was tabulated and the amount (mg) of compound needed to deplete 0.05 mg of DPPH was calculated (see Table 1).
# [2] = UV absorbing ability (UV/Vis absorbance of solutions); type: physicochemical; conditions: 0.5 mg/ml, avobenzone in acetone, functionalized fullerene in distilled water
# Experimental: The ability of a component to absorb UV light is readily tested using spectroscopic instruments, such as a UV/Vis spectrophotometer.
# 5.0 milligrams (mg) of avobenzone, a UV light absorbing substance widely used in sunscreens, was dissolved in 10 milliliters (ml) of reagent grade acetone. […] UV absorbance (A) of the resulting solutions was measured at 290 nm, 320 nm, and 400 nm.
Absorbance (A) 290 nm ([2]; 290 nm),Absorbance (A) 320 nm ([2]; 320 nm),Absorbance (A) 400 nm ([2]; 400 nm),Structure (SMILES),RD(.05 mg): amount of compound needed to deplete .05 mg of DPPH ([1]; 30 minutes reaction time),Slope (anti-oxidant potential) ([1]; 30 minutes reaction time),RD(.05 mg): amount of compound needed to deplete .05 mg of DPPH ([1]; 300 minutes reaction time),Slope (anti-oxidant potential) ([1]; 300 minutes reaction time)
–,–,–,"CCCCC/C=C\C/C=C\C/C=C\C/C=C\CCCC(=O)O [Arachidonic Acid, arachidonic acid, reference compound]",250.00 mg,-0.0002 mg/mg,45.45 mg,-0.0011 mg/mg
0.297,0.521,0.376,"COc1ccc(C(=O)CC(=O)c2ccc(C(C)(C)C)cc2)cc1 [Avobenzone, avobenzone]",–,–,–,–
–,–,–,"COC1=C(OC)C(=O)C(C/C=C(\C)CC/C=C(\C)CC/C=C(\C)CC/C=C(\C)CC/C=C(\C)CC/C=C(\C)CC/C=C(\C)CC/C=C(\C)CC/C=C(\C)CCC=C(C)C)=C(C)C1=O [Coenzyme Q10, coenzyme Q10, reference compound]",125.00 mg,-0.0004 mg/mg,23.81 mg,-0.0021 mg/mg
–,–,–,"CCCCC/C=C\C/C=C\CCCCCCCC(=O)O [Linoleic Acid, linoleic acid, reference compound]",6250.00 mg,-0.000008 mg/mg,100.00 mg,-0.0005 mg/mg
–,–,–,"CC/C=C\C/C=C\C/C=C\CCCCCCCC(=O)O [Linolenic Acid, α-linolenic acid, reference compound]",250.00 mg,-0.0002 mg/mg,45.45 mg,-0.0011 mg/mg
